Where two headings read alike, the source gives them in different places.

In general, Emax refers to the size of the effect at its maximum, as opposed to the concentration needed.

The target in experiment [1] is T1, 5-HT1A cloned receptor membrane fragments (Homo sapiens, UniProt P08908).
T1 construct: expressed in transfected cells
T1 sequence (P08908 1-422): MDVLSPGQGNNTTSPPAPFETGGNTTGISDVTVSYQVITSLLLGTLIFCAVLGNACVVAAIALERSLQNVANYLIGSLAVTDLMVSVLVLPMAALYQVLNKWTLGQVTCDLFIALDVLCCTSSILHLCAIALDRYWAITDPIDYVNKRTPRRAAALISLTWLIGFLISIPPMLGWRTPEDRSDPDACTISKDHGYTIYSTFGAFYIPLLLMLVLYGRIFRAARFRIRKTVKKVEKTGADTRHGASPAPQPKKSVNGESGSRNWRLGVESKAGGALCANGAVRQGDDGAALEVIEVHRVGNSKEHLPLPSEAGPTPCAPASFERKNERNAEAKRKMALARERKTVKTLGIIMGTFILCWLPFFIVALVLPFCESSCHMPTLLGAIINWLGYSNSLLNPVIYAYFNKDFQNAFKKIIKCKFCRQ
Briefly: [35S]-GTPγS binding assay. In kind it is biochemical. Particulars: value in brackets, or a lone % in the cell; maximum agonist response defined by excess 8-OH-DPAT; read-out: GTPγS (%EMax). The protocol:
The [^35S]-GTPγS binding assay was similar to that used by Lazareno and Birdsall, Br. J. Pharmacol. 109:1120 (1993). Briefly, 5-HT1A cloned receptor membrane fragments (as used for 5-HT1A receptor binding assays) were stored at -70°C until needed. When needed, membranes were rapidly thawed, centrifuged at 40,000 x g for 10 minutes and resuspended at 4 °C for 10 minutes in assay buffer (25 mM HEPES, 3 mM MgCl2, 100 mM NaCl, 1 mM EDTA, 10 uM GDP, […], pH 8.0). These membranes were then incubated for 30 minutes at 30°C with [^35S]GTPgS (1 nM) in the presence of vehicle, test compound (one to eight concentrations), or excess 8-OH-DPAT to define maximum agonist response. All reactions are terminated by the addition of ice cold Tris buffer followed by rapid filtration using a Tom Tech® filtration device to separate bound from free [^35S]GTPgS. Agonists produce an increase in the amount of [^35S]GTPgS bound whereas antagonists produce no increase in binding. Bound radioactivity was counted and analyzed as above.

Experiment [2] deals with T2, human 5-HT1A receptor subtype (Homo sapiens, UniProt P08908).
T2 construct: expressed in transfected cells
T2 sequence (P08908 1-422): T1 sequence (P08908 1-422)
Briefly: 5-HT1A receptor binding assay with [3H]8-OH-DPAT on CHO cell membranes. The settings on record: [3H]8-OH-DPAT 1.5 nM. The protocol: (§1) The PCR cloning of the human 5-HT1A receptor subtype from a human genomic library has been described previously Chanda et al., Mol. Pharmacol., 43:516 (1993). A stable Chinese hamster ovary cell line expressing the human 5-HT1A receptor subtype (5-HT1A.CHO cells) was employed throughout this study. Cells were maintained in DMEM supplemented with 10% foetal calf serum, non-essential amino acids and penicillin/ streptomycin.
Cells were grown to 95-100% confluency as a monolayer before membranes were harvested for binding studies. Cells were gently scraped from the culture plates, transferred to centrifuge tubes, and washed twice by centrifugation (2000 rpm for 10 min., 4°C) in buffer (50 mM Tris; pH 7.5). The resulting pellets were aliquoted and placed at -80°C. On the day of assay, the cells were thawed on ice, and resuspended in buffer. Studies were conducted using [^3H]8-OH-DPAT as the radioligand. The binding assay was performed in 96 well microtiter plates in a final total volume of 250 µL of buffer. Competition experiments were performed by using 7 concentrations of unlabelled drug and a final ligand concentration of 1.5 nM. Nonspecific binding was determined in the presence of 10 µM 5HT. Saturation analysis was conducted by using [^3H]8-OH-DPAT at concentrations ranging from 0.3-30 nM. Following a 30 minute incubation at room temperature, the reaction was terminated by the addition of ice cold buffer and rapid filtration using a M-96 Brandel Cell Harvester (Gaithersburg, MD) through a GF/B filter presoaked for 30 minutes in 0.5% polyethyleneimine.

Another experiment addresses T3, serotonin transporter (Rattus norvegicus, UniProt P31652).
T3 construct: from tissue; host or cells: frontal cortex of male Sprague-Dawley rats
As to the kind of experiment: Serotonin transporter affinity, 3H-paroxetine binding to frontal cortical membranes. Set-up: species or system male Sprague-Dawley rats. As to the method: Briefly, frontal cortical membranes prepared from male Sprague-Dawley rats were incubated with ^3H-paroxetine (0.1 nM) for 60 minutes at 25°C. […] All reactions are terminated by the addition of ice cold Tris buffer followed by rapid filtration using a Tom Tech filtration device to separate bound from free ^3H-paroxetine.

Experiment [3] deals with T4, human 5-HT1A receptor subtype (5-HT1A.CHO cells) (Homo sapiens, UniProt P08908).
T4 construct: expressed in transfected cells
T4 sequence (P08908 1-422): T1 sequence (P08908 1-422)
Briefly: cAMP formation in forskolin-treated cells (cAMP SPA assay). Particulars: value in brackets; forskolin 1 uM. Type of experiment: cell-based. The protocol:
as §1
The following assays were performed by incubating the cells with DMEM containing 25 mM HEPES, 5 mM theophylline and 10 µM pargyline for a period of 20 minutes at 37°C. Functional activity was assessed by treating the cells with forskolin (1 uM final concentration) followed immediately by test compound (6 concentrations) for an additional 10 minutes at 37°C. In separate experiments, 6 concentrations of antagonist were preincubated for 20 minutes prior to the addition of 10 nM 8-OH-DPAT and forskolin. The reaction was terminated by removal of the media and addition of 0.5 ml ice cold assay buffer. Plates were stored at -20°C prior to assessment of cAMP formation by a cAMP SPA assay (Amersham).

The mark [4] stands for this setting: 3H-paroxetine 0.1 nM, rat frontal cortical membranes, read-out: ST (Kj, nM,).

T3 sequence (P31652 whole entry): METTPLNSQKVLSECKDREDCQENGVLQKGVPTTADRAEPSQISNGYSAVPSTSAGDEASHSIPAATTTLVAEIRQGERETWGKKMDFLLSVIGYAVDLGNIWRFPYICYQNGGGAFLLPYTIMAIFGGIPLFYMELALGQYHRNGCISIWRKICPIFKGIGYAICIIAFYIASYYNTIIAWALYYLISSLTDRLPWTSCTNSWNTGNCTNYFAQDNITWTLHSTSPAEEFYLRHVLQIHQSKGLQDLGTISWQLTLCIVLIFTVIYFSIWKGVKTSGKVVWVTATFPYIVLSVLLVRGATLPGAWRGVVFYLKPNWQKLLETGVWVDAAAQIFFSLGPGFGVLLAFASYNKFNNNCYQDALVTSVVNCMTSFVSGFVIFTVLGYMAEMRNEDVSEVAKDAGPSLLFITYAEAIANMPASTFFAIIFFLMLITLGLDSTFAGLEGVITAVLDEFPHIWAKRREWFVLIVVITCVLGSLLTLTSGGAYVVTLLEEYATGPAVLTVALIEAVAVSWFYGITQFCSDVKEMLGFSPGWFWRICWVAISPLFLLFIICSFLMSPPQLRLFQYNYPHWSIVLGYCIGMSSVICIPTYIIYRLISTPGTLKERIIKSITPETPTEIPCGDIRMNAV

For `Clc1ccc2[nH]cc([C@H]3CC[C@@H](N4CCN(c5cccc6[nH]ccc56)CC4)CC3)c2c1` [Example 6a, 5-Chloro-3-[cis-4-[4-(1H-indol-4-yl)-1-piperazinyl]cyclohexyl]-1H-indole], the Emax in experiment [1] is 53%; in experiment [3], 80%. In addition, the results for the Ki (in experiment [2]; on serotonin transporter (setting [4])) were 326 nM and 28 nM, respectively.

On to `N#Cc1ccc2[nH]cc(C3=CCC(N4CCN(c5cccc6[nH]ccc56)CC4)CC3)c2c1` (stereo not drawn) [Example 36, 3-{4-[4-(1H-Indol-4-yl)-piperazin-1-yl]-cyclohex-1-enyl}-1H-indole-5-carbonitrile], for which the maximum response (Emax) in experiment [1] was 53%; in experiment [3], 80%. The results for the Ki (in experiment [2]; on serotonin transporter (setting [4])) were 12.3 nM and 28 nM, respectively.

`COc1ccccc1N1CCN([C@H]2CC[C@@H](c3c[nH]c4ccc(F)cc43)CC2)CC1` [Example 18, 5-Fluoro-3-{(cis)-4-[4-(2-methoxy-phenyl)-piperazin-1-yl] -cyclohexyl}-1H-indole]: the Ki in experiment [2] was 129 nM; on serotonin transporter (setting [4]), 1.36 nM.

Regarding `COc1ccc(F)cc1N1CCN([C@H]2CC[C@H](c3c[nH]c4ccc(F)cc43)CC2)CC1` [Example 22b, 5-Fluoro-3-{(trans)-4-[4-(5-fluoro-2-methoxy-phenyl)-piperazin-1-yl]-cyclohexyl}-1H-indole], the figures for the Emax in experiment [1] and in experiment [3] were 4.5% and 0%, respectively. Moreover, the figures for the Ki (in experiment [2]; at serotonin transporter (setting [4])) were 11.6 nM and 36.5 nM, respectively.

Consider `Cn1cc([C@H]2CC[C@@H](N3CCN(c4cccc5[nH]ccc45)CC3)CC2)c2cc(F)ccc21` [Example 38, 5-Fluoro-3-{cis-4-[4-(1H-indol-4-yl)-piperazinyl]-cyclohexyl}-1-methyl-1H-indole], for which the Ki at serotonin transporter amounted to 7.22 nM.

As for `Fc1cc2c(c(N3CCN([C@H]4CC[C@@H](c5c[nH]c6ccc(F)cc65)CC4)CC3)c1)OCCC2` [Example 31a, 5-Fluoro-3-{(1,4-cis)-4-[4-(6-fluoro-chroman-8-yl)-piperazin-1-yl]-cyclohexyl}-1H-indole], the Ki was 142 nM in experiment [2] and 13 nM on serotonin transporter.

Take `Cn1ccc2c(N3CCN([C@H]4CC[C@@H](c5cn(C)c6cc(F)ccc65)CC4)CC3)cccc21` [Example 11, 6-Fluoro-1-methyl-3-{cis-4-[4-(1-methyl-1H-indol-4-yl)-1-piperazinyl]cyclohexyl}-1H-indole]: the Ki on serotonin transporter (setting [4]) came out at 40 nM.

Regarding `COc1ccc(F)cc1N1CCN([C@H]2CC[C@@H](c3c[nH]c4ccc(F)cc43)CC2)CC1` [Example 22a, 5-Fluoro-3-{(cis)-4-[4-(5-fluoro-2-methoxy-phenyl)-piperazin-1-yl]-cyclohexyl}-1H-indole], the Emax in experiment [1] and in experiment [3] was 0% in each case. In addition, the Ki in experiment [2] worked out at 80.7 nM; on serotonin transporter (setting [4]), 4.96 nM.

Take `COc1ccccc1N1CCN(C2CC=C(c3c[nH]c4ccc(F)cc34)CC2)CC1` (stereo not drawn) [Example 35, 5-Fluoro-3-{4-[4-(2-methoxy-phenyl)-piperazin-1-yl]cyclohex-1-enyl}-1H-indole]: the results for the Ki (in experiment [2]; on serotonin transporter (setting [4])) were 70.1 nM and 91 nM, respectively.

Values taken from EP1147083B1, “ARYLPIPERAZINYL-CYCLOHEXYL INDOLE DERIVATIVES FOR THE TREATMENT OF DEPRESSION” (Wyeth, priority 1999, dated 2000).
